The assay deals with C3H10T1/2 cells. Briefly: C3H assay: differentiation of C3H10T1/2 cells by mSHH, measurement of alkaline phosphatase. The note with it: C3H10T1/2 cells stimulated with mSHH for 72 hours, alkaline phosphatase activity, read-out: IC50 Ranges. The class given is cell-based, mouse.

Where two headings read alike, the source gives them in different places.

These results are taken from patent US10961238B2, “Modulators of hedgehog (Hh) signaling pathway” (E-THERAPEUTICS PLC, priority 2016, dated 2021).

For orientation: IC50 means the concentration that gives 50% inhibition.

As for `O=C(OC1CCOCC1)N1CC(S(=O)(=O)N2CCC(c3c[nH]c4ncccc34)CC2)C1` [Compound 218, oxan-4-yl 3-[4-(1H-pyrrolo[2,3-b]pyridin-3-yl)piperidin-1-yl]sulfonylaze-tidine-1-carboxylate], the IC50 (Mus musculus, C3H 10T1/2) lay within 10 to 100 nM.

Regarding `COc1ccc(OC(=O)N2CC(S(=O)(=O)N3CCC(c4c[nH]c5ncccc45)CC3)C2)cc1` [Compound 219, (4-methoxyphenyl) 3-[4-(1H-pyrrolo[2,3-b]pyridin-3-yl)piperidin-1-yl]sulfonylaze-tidine-1-carboxylate], the IC50 (Mus musculus, C3H 10T1/2) lay within 10 to 100 nM. Same read-out and setting: the same measure for `O=C(OC1COCOC1)N1CC(S(=O)(=O)N2CCC(c3c[nH]c4ncccc34)CC2)C1` [Compound 220, 1,3-dioxan-5-yl 3-[4-(1H-pyrrolo[2,3-b]pyridin-3-yl)piperidin-1-yl]sulfonylaze-tidine-1-carboxylate]: 10 to 100 nM; for `CC(C)(C)OC(=O)N1CC(S(=O)(=O)N2CCC(c3c[nH]c4nccc(F)c34)CC2)C1` [Compound 221, tert-butyl 3-[4-(4-fluoro-1H-pyrrolo[2,3-b]pyridin-3-yl)piperidin-1-yl]sulfonylaze-tidine-1-carboxylate]: 100 to 1000 nM. The same measure, in the same setting: the same measure for `O=C(OC1COC1)N1CC(S(=O)(=O)N2CCC(c3c[nH]c4ncccc34)CC2)C1` [Compound 222, oxetan-3-yl 3-[4-(1H-pyrrolo[2,3-b]pyridin-3-yl)piperidin-1-yl]sulfonylaze-tidine-1-carboxylate]: 100 to 1000 nM; for `Cc1[nH]c2ncccc2c1C1CCN(S(=O)(=O)C2CN(C(=O)OC(C)(C)C)C2)CC1` [Compound 224]: 1000 to 10000 nM; for `CC(C)(C)OC(=O)N1CC(S(=O)(=O)N2CCN(c3nsc4ccccc34)CC2)C1` [Compound 225, tert-butyl 3-[4-(1,H-benzothiazol-3-yl)piperazin-1-yl]sulfonylaze-tidine-1-carboxylate]: 1000 to 10000 nM.

Regarding `CC(C)(C)OC(=O)N1CC(S(=O)(=O)N2CCN(c3c[nH]c4ncccc34)CC2)C1` [Compound 226, tert-Butyl 3-[4-(1H-pyrrolo[2,3-b]pyridin-3-yl)piperazin-1-yl]sulfonylazetidine-1-carboxylate], under “Mus musculus, C3H 10T1/2”, the IC50 lay within 1000 to 10000 nM. `COc1ccc(N2CCN(S(=O)(=O)C3CCN(C(=O)OC(C)(C)C)CC3)CC2)cc1` [Compound 227, tert-butyl 4-[4-(4-methoxyphenyl)piperazin-1-yl]sulfonylpiper-idine-1-carboxylate]: under “Mus musculus, C3H 10T1/2”, the IC50 was 1000 to 10000 nM. With `CC(C)(C)OC(=O)N1CCC(S(=O)(=O)N2CC=C(c3n[nH]c4ncccc34)CC2)CC1` [Compound 229, tert-butyl 4-[[4-(1H-pyrazolo[3,4-b]pyridin-3-yl)-3,6-dihydro-2H-pyridin-1-yl]sulfonyl] piperidine-1-carboxylate], the IC50 lay within 1000 to 10000 nM. `CC(C)(C)OC(=O)N1CCC(S(=O)(=O)N2CC=C(c3csc4cccnc34)CC2)CC1` [Compound 230, tert-butyl 4-[(4-thieno[3,2-b]pyridin-3-yl-3,6-dihydro-2H-pyridin-1-yl)sulfonyl]pip eridine-1-carboxylate]: under “Mus musculus, C3H 10T1/2”, the IC50 lay in the range of 100 to 1000 nM.

As to `CC(C)(C)OC(=O)N1CC(S(=O)(=O)N2CC=C(c3coc4cccnc34)CC2)C1` [Compound 231, tert-butyl 3-[(4-furo[3,2-b]pyridin-3-yl-3,6-dihydro-2H-pyridin-1-yl)sulfonyl]aze tidine-1-carboxylate], the IC50 (Mus musculus, C3H 10T1/2) lay in the range of 100 to 1000 nM.

As for `CC(C)(C)OC(=O)N1CCC(S(=O)(=O)N2CC=C(c3coc4cccnc34)CC2)CC1` [Compound 232, tert-butyl 4-[(4-furo[3,2-b]pyridin-3-yl-3,6-dihydro-2H-pyridin-1-yl)sulfonyl]pip eridine-1-carboxylate], the IC50 (Mus musculus, C3H 10T1/2) was in the range of 100 to 1000 nM. Same read-out and setting: the same measure for `CC(C)(C)OC(=O)N1CCC(S(=O)(=O)N2CC=C(c3c[nH]c4ncncc34)CC2)CC1` [Compound 233, tert-butyl 4-[[4-(7H-pyrrolo[2,3-d]pyrimidin-5-yl)-3,6-dihydro-2H-pyridin-1-yl]sulfonyl] piperidine-1-carboxylate]: 1000 to 10000 nM; for `CC(C)(C)OC(=O)N1CC(S(=O)(=O)N2CC=C(c3cnc4occc4c3)CC2)C1` [Compound 234, tert-butyl 3-[(4-furo[2,3-b]pyridin-5-yl-3,6-dihydro-2H-pyridin-1-yl)sulfonyl]aze tidine-1-carboxylate]: 100 to 1000 nM; for `Cc1ccc(S(=O)(=O)n2cc(C3=CCN(S(=O)(=O)C4CCN(C(=O)OC(C)(C)C)CC4)CC3)c3cncnc32)cc1` [Compound 235, tert-butyl 4-[[4-[7-(4-methylphenyl)sulfonylpyrrolo[2,3-d]pyrimidin-5-yl]-3,6-dihydro-2H-pyridin-1-yl]sulfonyl] piperidine-1-carboxylate]: 100 to 1000 nM. Same read-out and setting: the same measure for `CC(C)(C)OC(=O)N1CCC(S(=O)(=O)N2CC=C(c3ccnc4[nH]ccc34)CC2)CC1` [Compound 236, tert-butyl 4-[[4-(1H-pyrrolo[2,3-b]pyridin-4-yl)-3,6-dihydro-2H-pyridin-1-yl]sulfonyl] piperidine-1-carboxylate]: 1000 to 10000 nM; for `Cc1ccc(S(=O)(=O)n2ccc3c(C4=CCN(S(=O)(=O)C5CCN(C(=O)OC(C)(C)C)CC5)CC4)ccnc32)cc1` [Compound 237, tert-butyl 4-[[4-[1-(4-methylphenyl)sulfonylpyrrolo [2,3-b]pyridin-dihydro-2H-pyridin-1-yl]sulfonyl]piperidine-1-carboxylate]: 100 to 1000 nM; for `CC(C)(C)OC(=O)N1CCC(S(=O)(=O)N2CC=C(c3ncnc4[nH]ccc34)CC2)CC1` [Compound 238, tert-butyl 4-[[4-(7H-pyrrolo[2,3-d]pyrimidin-4-yl)-3,6-dihydro-2H-pyridin-1-yl]sulfonyl] piperidine-l-carboxylate]: 1000 to 10000 nM.

As for `Cc1cc(C#N)ccc1N1CCN(S(=O)(=O)C2CN(C(=O)OC(C)(C)C)C2)CC1` [Compound 240, tert-butyl 3-[4-(4-cyano-2-methylphenyl)piperazin-1-yl]sulfonylaze-tidine-1-carboxylate], the IC50 (Mus musculus, C3H 10T1/2) was 1000 to 10000 nM. Consider `COC(=O)c1csc(N2CC(S(=O)(=O)N3CCC(c4c[nH]c5ncccc45)CC3)C2)n1` [Compound 241, methyl 2-[3-[4-(1H-pyrrolo[2,3-b]pyridin-3-yl)piperidin-1-yl]sulfonylaze-tidin-1-yl]-1,3-thiazole-4-carboxylate], for which, for the setting “Mus musculus, C3H 10T1/2”, the IC50 fell in the range of 100 to 1000 nM. The same measure, in the same setting: the same measure for `N#Cc1ccnc(N2CC(S(=O)(=O)N3CCC(c4c[nH]c5ncccc45)CC3)C2)c1` [Compound 242, 2-[3-[4-(1H-pyrrolo[2,3-b]pyridin-3-yl)piperidin-1-yl]sulfonylaze-tidin-1-yl] pyridine-4-carbonitrile]: 10 to 100 nM; for `CCOc1cccc(N2CC(S(=O)(=O)N3CCC(c4c[nH]c5ncccc45)CC3)C2)n1` [Compound 243, 3-[1-[1-(6-ethoxypyridin-2-yl)azetidin-3-yl]sulfonylpiper-idin-4-yl]-1H-pyrrolo[2,3-b]pyridine]: 10 to 100 nM. On the same count and under the same terms, the same measure for `COC(=O)c1cnc(N2CC(S(=O)(=O)N3CCC(c4c[nH]c5ncccc45)CC3)C2)s1` [Compound 245, methyl 2-[3-[4-(1H-pyrrolo[2,3-b]pyridin-3-yl)piperidin-1-yl]sulfonylaze-tidin-1-yl]-1,3-thiazole-5-carboxylate]: 100 to 1000 nM; for `COC(=O)c1coc(N2CC(S(=O)(=O)N3CCC(c4c[nH]c5ncccc45)CC3)C2)n1` [Compound 246, methyl 2-[3-[4-(1H-pyrrolo[2,3-b]pyridin-3-yl)piperidin-1-yl]sulfonylaze-tidin-1-yl]-1,3-oxazole-4-carboxylate]: 100 to 1000 nM. As for `CN(C)CC1(CN2CC(S(=O)(=O)N3CCC(c4c[nH]c5ncccc45)CC3)C2)CCCC1` [Compound 247, N,N-dimethyl-1-[1-[[3-[4-(1H-pyrrolo[2,3-b]pyridin-3-yl)piperidin-1-yl]sulfonylaze-tidin-1-yl]methyl]cyclopentyl] methanamine], the IC50 (Mus musculus, C3H 10T1/2) was 1000 to 10000 nM.

`CC(C)[C@H](CO)NC(=O)N1CC(S(=O)(=O)N2CCC(c3c[nH]c4ncccc34)CC2)C1` [Compound 251, N-[(2R)-1-hydroxy-3-methylbutan-2-yl]-3-[4-(1H-pyrrolo[2,3-b]pyridin-3-yl)piperidin-1-yl]sulfonylaze-tidine-1-carboxamide]: the IC50 (Mus musculus, C3H 10T1/2) fell in the range of 10 to 100 nM.

As to `COc1ccnc(N2CC(S(=O)(=O)N3CCC(c4c[nH]c5ncccc45)CC3)C2)c1C#N` [Compound 252, 4-methoxy-2-[3-[4-(1H-pyrrolo [2,3-b]pyridin-3-yl)piperidin-1-yl]sulfonylaze-tidin-1-yl]pyridine-3-carbonitrile], under “Mus musculus, C3H 10T1/2”, the IC50 is 100 to 1000 nM. In the case of `O=S(=O)(C1CN(c2ncccc2F)C1)N1CCC(c2c[nH]c3ncccc23)CC1` [Compound 253, 3-[1-[1-(3-fluoropyridin-2-yl)azetidin-3-yl]sulfonylpiper-idin-4-yl]-1H-pyrrolo[2,3-b]pyridine], the IC50 (Mus musculus, C3H 10T1/2) lay within 10 to 100 nM.

As for `Cc1cccnc1N1CC(S(=O)(=O)N2CCC(c3c[nH]c4ncccc34)CC2)C1` [Compound 254, 3-[1-[1-(3-methylpyridin-2-yl)azetidin-3-yl]sulfonylpiper-idin-4-yl]-1H-pyrrolo[2,3-b]pyridine], under “Mus musculus, C3H 10T1/2”, the IC50 was 10 to 100 nM. Same read-out and setting: with `CC(C)(O)c1cccnc1N1CC(S(=O)(=O)N2CCC(c3c[nH]c4ncccc34)CC2)C1` [Compound 255, 2-[2-[3-[4-(1H-pyrrolo[2,3-b]pyridin-3-yl)piperidin-1-yl]sulfonylaze-tidin-1-yl]pyridin-3-yl]propan-2-ol] the figure was 10 to 100 nM; with `Cc1ccnc(N2CC(S(=O)(=O)N3CCC(c4c[nH]c5ncccc45)CC3)C2)c1` [Compound 257, 3-[1-[1-(4-methylpyridin-2-yl)azetidin-3-yl]sulfonylpiper-idin-4-yl]-1H-pyrrolo[2,3-b]pyridine], 10 to 100 nM; with `N#Cc1ccnc(N2CC(S(=O)(=O)N3CCC(c4ccncc4)CC3)C2)c1` [Compound 258, 2-[3-(4-pyridin-4-ylpiperidin-1-yl)sulfonylaze-tidin-1-yl]pyridine-4-carbonitrile], 1000 to 10000 nM.
